Measurements published in patent US20110065706A1, “Therapeutic Agents 812” (AstraZeneca AB, priority 2009, published 2011).

biological target: T1, human GPR119 (Homo sapiens, UniProt Q8TDV5); assay: Cyclic AMP (HTRF cAMP) assay for human GPR119, Method A; format: cell-based; conditions: HEK293S, 0.75 h; Method A; HEK 293s cells over-expressing human GPR119; percent effect at top concentration 30 μM relative to maximum (50 μM Oleoylethanolamide) and minimum (1% DMSO) controls
T1 construct: expressed in transfected cells; host or cells: HEK 293s
T1 sequence (Q8TDV5 1-335): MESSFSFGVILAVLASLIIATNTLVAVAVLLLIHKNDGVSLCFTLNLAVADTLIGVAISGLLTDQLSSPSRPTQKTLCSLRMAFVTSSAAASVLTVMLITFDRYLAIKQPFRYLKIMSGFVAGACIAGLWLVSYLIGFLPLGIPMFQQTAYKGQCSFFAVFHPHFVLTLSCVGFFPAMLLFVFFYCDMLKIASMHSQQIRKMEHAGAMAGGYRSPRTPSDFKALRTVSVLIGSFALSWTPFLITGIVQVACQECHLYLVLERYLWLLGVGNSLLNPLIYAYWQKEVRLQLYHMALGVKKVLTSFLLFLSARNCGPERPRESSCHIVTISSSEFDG

activation at 30 µM [%]	Structure (SMILES)
90	CC1(OC(=O)N2CCN(c3ncc(OCc4ccc(S(C)(=O)=O)cc4)cn3)CC2)CC1 [Example 60, 1-Methylcyclopropyl 4-(5-(4-(methylsulfonyl)benzyloxy)pyrimidin-2-yl)piperazine-1-carboxylate]
44	CC(C)C(=O)Nc1ncc(COc2cnc(N3CCN(C(=O)OC(C)(C)C)CC3)nc2)cn1 [Example 94, Tert-butyl 4-(5-((2-isobutyramidopyrimidin-5-yl)methoxy)pyrimidin-2-yl)piperazine-1-carboxylate]
59	CC(=O)Nc1ccc(COc2cnc(N3CCN(C(=O)OC(C)(C)C)CC3)nc2)cn1 [Example 6, tert-butyl 4-(5-((6-acetamido-pyridin-3-yl)methoxy)pyrimidin-2-yl)piperazine-1-carboxylate]
52	CS(=O)(=O)c1ccc(COc2cnc(N3CCN(C(=O)OC4CCC4)CC3)nc2)cc1 [Example 63, Cyclobutyl 4-(5-(4-(methylsulfonyl)benzyloxy)pyrimidin-2-yl)piperazine-1-carboxylate]
44	CC(C)(C)OC(=O)N1CCN(c2ncc(OCc3ccc(C(=O)N4CCOCC4)cc3)cn2)CC1 [Example 53]
170	CC(C)(C)OC(=O)N1CCN(c2ncc(OCc3ccc(-n4cnnn4)cc3)cn2)CC1 [Example 7, Tert-butyl 4-(5-(4-(1H-tetrazol-1-yl)benzyloxy)pyrimidin-2-yl)piperazine-1-carboxylate]
164	N#Cc1cnccc1COc1cnc(N2CCN(C(=O)OC3CCC3)CC2)nc1 [Example 65, cyclobutyl 4-(5-((3-cyanopyri-din-4-yl)methoxy)pyrimidin-2-yl)piperazine-1-carboxylate]
26	CN(C)CCNC(=O)c1ccc(COc2cnc(N3CCN(C(=O)OC(C)(C)C)CC3)nc2)cc1 [Example 48, tert-butyl 4-(5-(4-(2-(dimethylamino)ethylcarba-moyl)benzyloxy)pyrimidin-2-yl)piperazine-1-carboxylate]
80	CC(C)(C)OC(=O)N1CCN(c2ncc(OCc3ccc(NC(=O)C(C)(C)C)cc3)cn2)CC1 [Example 15, tert-butyl 4-(5-(4-pivalamido-benzyloxy)pyrimidin-2-yl)piperazine-1-carboxylate]
36	CC(C)(C)OC(=O)N1C[C@@H]2CC[C@H]1CN2c1ncc(OCc2ccc(S(C)(=O)=O)cc2)cn1 [Example 29, (1S,4S)-tert-butyl 5-(5-(4-(methylsulfonyl)benzyloxy)pyrimidin-2-yl)-2,5-diazabicyclo [2.2.2]octane-2-carboxylate]
154	CC(C)OC(=O)N1CCN(c2ncc(OCc3ccncc3C#N)cn2)CC1 [Example 58, isopropyl 4-(5-((3-cyanopyridin-4-yl)methoxy)pyrimidin-2-yl)piperazine-1-carboxylate]
26	COc1cc(COc2cnc(N3CCN(C(=O)OC(C)(C)C)CC3)nc2)c(F)cn1 [Example 8, tert-butyl 4-(5-((5-fluoro-2-methoxy-pyridin-4-yl)methoxy)pyrimidin-2-yl)piperazine-1-carboxylate]
92	N#Cc1cnccc1COc1cnc(N2CCN(C(=O)OC3COC3)CC2)nc1 [Example 77, oxetan-3-yl 4-(5-((3-cyanopyridin-4-yl)methoxy)pyrimidin-2-yl)piperazine-1-carboxylate]
65	Cc1cc(COc2cnc(N3CCN(C(=O)OC(C)(C)C)CC3)nc2)ccc1C(=O)NC(C)(C)C [Example 55, tert-butyl 4-(5-(4-(tert-butylcarbamoyl)-3-methylbenzyl-oxy)pyrimidin-2-yl)piperazine-1-carboxylate]
90	N#Cc1cnccc1COc1cnc(N2CCN(c3ncc(F)cn3)CC2)nc1 [Example 40, 4-((2-(4-(5-Fluoropyrimidin-2-yl)piperazin-1-yl)pyrimidin-5-yloxy)methyl)nicotinonitrile]
155	C[C@@H]1CN(C(=O)OC(C)(C)C)CCN1c1ncc(OCc2ccc(S(C)(=O)=O)cc2)cn1 [Example 18, (R)-Tert-butyl 3-methyl-4-(5-(4-(methylsulfonyl)benzyloxy)pyrimidin-2-yl)piperazine-1-carboxylate]
32	CC(C)(C)OC(=O)N1CCN(c2ncc(OCc3ccc([S+]([O-])C(F)(F)F)cc3)cn2)CC1 (stereo not shown) [Example 91, Tert-butyl 4-(5-(4-(trifluoromethylsulfinyl)benzyloxy)pyrimidin-2-yl)piperazine-1-carboxylate]
65	CC(C)(C)OC(=O)N1CCN(c2ncc(OCc3ccc(OS(C)(=O)=O)cc3)cn2)CC1 [Example 17, tert-butyl 4-(5-(4-(methyl-sulfonyloxy)benzyloxy)pyrimidin-2-yl)piperazine-1-carboxylate]
23	CC(C)(C)OC(=O)N1CCN(c2ncc(OCc3ccc(C(=O)N4CCNCC4)cc3)cn2)CC1 [Example 50, tert-butyl 4-(5-(4-(piperazine-1-carbonyl)benz-yloxy)pyrimi-din-2-yl)piperazine-1-carboxylate]
109	CC(C)(C)NC(=O)c1ccc(COc2cnc(N3CCN(C(=O)OC(C)(C)C)CC3)nc2)cc1 [Example 47, tert-butyl 4-(5-(4-(tert-butylcarbamoyl)benzyloxy)pyrimidin-2-yl)piperazine-1-carboxylate]
27	CN(C)CCN(C)C(=O)c1ccc(COc2cnc(N3CCN(C(=O)OC(C)(C)C)CC3)nc2)cc1 [Example 49, tert-butyl 4-(5-(4-((2-(dimethylamino)ethyl)(methyl)carbamoyl)benzyloxy)pyrim-idin-2-yl)piperazine-1-carboxylate]
61	CC(C)(C)OC(=O)N1CCN(c2ncc(OCc3ccncn3)cn2)CC1 [Example 9, tert-butyl 4-(5-(pyrimidin-4-ylmethoxy)pyrimidin-2-yl)piperazine-1-carboxylate]
86	CC(C)(C)OC(=O)N1CCN(c2ncc(OCc3ccc(S(C)(=O)=O)nc3)cn2)CC1 [Example 30, Tert-butyl 4-(5((6-(methylsulfonyl)pyridin-3-yl)methoxy)pyrimidin-2-yl)piperazine-1-carboxylate]
128	CC(C)(C)OC(=O)N1CCN(c2ncc(OCc3ccc(S(C)(=O)=O)cc3F)cn2)CC1 [Example 36, tert-butyl 4-(5-(2-fluoro-4-(methylsulf-onyl)benzyl-oxy)pyrimi-din-2-yl)piperazine-1-carboxylate]
61	CC(C)(C)OC(=O)N1CCN(c2ncc(OCc3ccc(C(=O)NCCO)cc3)cn2)CC1 [Example 44, tert-butyl 4-(5-(4-(2-hydroxyethyl-carbamoyl)benz-yloxy)pyrimi-din-2-yl)piperazine-1-carboxylate]
48	CN(CCO)C(=O)c1ccc(COc2cnc(N3CCN(C(=O)OC(C)(C)C)CC3)nc2)cc1 [Example 43, Tert-butyl 4-(5-(4-((2-hydroxyethyl)(methyl)carbamoyl)benzyloxy)pyrimidin-2-yl)piperazine-1-carboxylate]
208	CC1(OC(=O)N2CCN(c3ncc(OCc4ccncc4C#N)cn3)CC2)CC1 [Example 62, 1-methylcyclo-propyl 4-(5-((3-cyanopyridin-4-yl)methoxy)pyrimidin-2-yl)piperazine-1-carboxylate]

same assay, conditions: Method A; HEK 293s cells over-expressing human GPR119; midpoint of dose response curve; selected examples

EC50 [nM]	Structure (SMILES)
20	CC(C)(C)OC(=O)N1CCN(c2ncc(OCc3ccc(OS(C)(=O)=O)cc3)cn2)CC1 [Example 17, tert-butyl 4-(5-(4-(methyl-sulfonyloxy)benzyloxy)pyrimidin-2-yl)piperazine-1-carboxylate]
2040	CN(C)CCN(C)C(=O)c1ccc(COc2cnc(N3CCN(C(=O)OC(C)(C)C)CC3)nc2)cc1 [Example 49, tert-butyl 4-(5-(4-((2-(dimethylamino)ethyl)(methyl)carbamoyl)benzyloxy)pyrim-idin-2-yl)piperazine-1-carboxylate]
19	CC(C)(C)OC(=O)N1CCN(c2ncc(OCc3ccc(S(C)(=O)=O)cc3F)cn2)CC1 [Example 36, tert-butyl 4-(5-(2-fluoro-4-(methylsulf-onyl)benzyl-oxy)pyrimi-din-2-yl)piperazine-1-carboxylate]
116	CC1(OC(=O)N2CCN(c3ncc(OCc4ccncc4C#N)cn3)CC2)CC1 [Example 62, 1-methylcyclo-propyl 4-(5-((3-cyanopyridin-4-yl)methoxy)pyrimidin-2-yl)piperazine-1-carboxylate]

same assay, conditions: human GPR119 cAMP assay; top concentration 30 μM

significant activity at a top concentration of 30 μM	Structure (SMILES)
did not show significant activity	C[C@@H]1CN(C(=O)OC2CCOCC2)CCN1c1ncc(OCc2ccc(S(C)(=O)=O)cc2)cn1 [tetrahydropyran-4-yl (3R)-3-methyl-4-[5-[(4-methylsulfonylphenyl)methoxy]pyrimidin-2-yl]piperazine-1-carboxylate]
did not show significant activity	N#Cc1cnccc1COc1cnc(N2CCN(C(=O)OC3CCOCC3)CC2)nc1 [tetrahydropyran-4-yl 4-[5-[3-cyano-4-pyridyl)methoxy]pyrimidin-2-yl]piperazine-1-carboxylate]
did not show significant activity	CS(=O)(=O)c1ccc(COc2cnc(N3CCN(C(=O)OC4CCOCC4)CC3)nc2)cc1 [tetrahydropyran-4-yl 4-[5-[(4-methylsulfonylphenyl)methoxy]pyrimidin-2-yl]piperazine-1-carboxylate]
did not show significant activity	N#Cc1cnccc1COc1cnc(N2CCN(C(=O)OC3CCOC3)CC2)nc1 (stereo not shown) [tetrahydrofuran-3-yl 4-[5-[(3-cyano-4-pyridyl)methoxy]pyrimidin-2-yl]piperazine-1-carboxylate]
did not show significant activity	Cc1cc(COc2cnc(N3CCN(C(=O)OC(C)(C)C)CC3)nc2)ccn1 [tert-butyl 4-[5-[(2-methyl-4-pyridyl)methoxy]pyrimidin-2-yl]piperazine-1-carboxylate]
did not show significant activity	CN1CCC(N(C)C(=O)c2ccc(COc3cnc(N4CCN(C(=O)OC(C)(C)C)CC4)nc3)cc2)CC1 [tert-butyl 4-[5-[[4-[methyl-(1-methyl-4-piperidyl)carbamoyl]phenyl]methoxy]pyrimidin-2-yl]piperazine-1-carboxylate]
